# Experiment: Bronchodialatory activity in guinea pig trachea assessed as reduction of histamine-induced contracture
# Assay type: functional, tissue-based, Cavia porcellus
row,Compound,IC50
1,CCN1CC[C@@]2(OC)OC(N)=C(C#N)[C@@H](c3ccccc3)[C@@H]2C1,23.4 µM
2,CO[C@@]12CCN(C)C[C@H]1[C@H](c1ccc(Cl)cc1)C(C#N)=C(N)O2,10.5 µM
3,CCN1CC[C@@]2(OC)OC(N)=C(C#N)[C@@H](c3ccc(Cl)cc3)[C@@H]2C1,14.9 µM
4,CO[C@@]12CCN(C)C[C@H]1[C@H](c1ccc(F)cc1)C(C#N)=C(N)O2,19.4 µM
5,CO[C@@]12CCN(C)C[C@H]1[C@H](c1ccc(C)cc1)C(C#N)=C(N)O2,13.2 µM
6,COc1ccc([C@@H]2C(C#N)=C(N)O[C@]3(OC)CCN(C)C[C@@H]23)cc1,23.1 µM
7,CCN1CC[C@@]2(OC)OC(N)=C(C#N)[C@@H](c3ccc(OC)cc3)[C@@H]2C1,25.5 µM
8,CO[C@@]12CCN(C)C[C@H]1[C@H](c1ccc(N3CCCCC3)cc1)C(C#N)=C(N)O2,19 µM
9,CCN1CC[C@@]2(OC)OC(N)=C(C#N)[C@@H](c3ccc(N4CCCCC4)cc3)[C@@H]2C1,13.8 µM
10,CO[C@@]12CCN(C)C[C@H]1[C@H](c1ccc(N3CCOCC3)cc1)C(C#N)=C(N)O2,20.2 µM
11,CCN1CC[C@@]2(OC)OC(N)=C(C#N)[C@@H](c3ccc(N4CCOCC4)cc3)[C@@H]2C1,28.7 µM
12,CO[C@@]12CCN(C)C[C@H]1[C@H](c1ccccc1)C(C#N)=C(N)O2,19.8 µM
13,CCCN1CC[C@@]2(OC)OC(N)=C(C#N)[C@@H](c3ccccc3)[C@@H]2C1,20.7 µM
14,CO[C@@]12CCN(Cc3ccccc3)C[C@H]1[C@H](c1ccccc1)C(C#N)=C(N)O2,22.6 µM
15,CO[C@@]12CCN(C)C[C@H]1[C@H](c1ccc3ccccc3c1)C(C#N)=C(N)O2,24.2 µM
16,CCN1CC[C@@]2(OC)OC(N)=C(C#N)[C@@H](c3ccc4ccccc4c3)[C@@H]2C1,28.3 µM
17,CCCN1CC[C@@]2(OC)OC(N)=C(C#N)[C@@H](c3ccc4ccccc4c3)[C@@H]2C1,37.1 µM
18,CO[C@@]12CCN(Cc3ccccc3)C[C@H]1[C@H](c1ccc3ccccc3c1)C(C#N)=C(N)O2,23.4 µM
19,CO[C@@]12CCN(C)C[C@H]1[C@H](c1ccc(Br)cc1)C(C#N)=C(N)O2,7.9 µM
20,CCN1CC[C@@]2(OC)OC(N)=C(C#N)[C@@H](c3ccc(Br)cc3)[C@@H]2C1,13.2 µM
21,CCCN1CC[C@@]2(OC)OC(N)=C(C#N)[C@@H](c3ccc(Br)cc3)[C@@H]2C1,19.4 µM

row,Compound,IC50
1,CCCN1CC[C@@]2(OC)OC(N)=C(C#N)[C@@H](c3ccc(Cl)cc3)[C@@H]2C1,30.3 µM
2,CO[C@@]12CCN(Cc3ccccc3)C[C@H]1[C@H](c1ccc(Cl)cc1)C(C#N)=C(N)O2,18.5 µM
3,CO[C@@]12CCN(C)C[C@H]1[C@H](c1ccc(Cl)cc1Cl)C(C#N)=C(N)O2,14.9 µM
4,CCN1CC[C@@]2(OC)OC(N)=C(C#N)[C@@H](c3ccc(Cl)cc3Cl)[C@@H]2C1,27.1 µM
5,CCCN1CC[C@@]2(OC)OC(N)=C(C#N)[C@@H](c3ccc(Cl)cc3Cl)[C@@H]2C1,35.5 µM
6,CO[C@@]12CCN(Cc3ccccc3)C[C@H]1[C@H](c1ccc(Cl)cc1Cl)C(C#N)=C(N)O2,18.3 µM
7,CCCN1CC[C@@]2(OC)OC(N)=C(C#N)[C@@H](c3ccc(F)cc3)[C@@H]2C1,29.6 µM
8,CO[C@@]12CCN(Cc3ccccc3)C[C@H]1[C@H](c1ccc(F)cc1)C(C#N)=C(N)O2,17.2 µM
9,CCN1CC[C@@]2(OC)OC(N)=C(C#N)[C@@H](c3ccc(C)cc3)[C@@H]2C1,16.8 µM
10,CCCN1CC[C@@]2(OC)OC(N)=C(C#N)[C@@H](c3ccc(C)cc3)[C@@H]2C1,21 µM
11,CO[C@@]12CCN(Cc3ccccc3)C[C@H]1[C@H](c1ccc(C)cc1)C(C#N)=C(N)O2,27.1 µM
12,CCCN1CC[C@@]2(OC)OC(N)=C(C#N)[C@@H](c3ccc(OC)cc3)[C@@H]2C1,21.3 µM
13,COc1ccc([C@@H]2C(C#N)=C(N)O[C@]3(OC)CCN(Cc4ccccc4)C[C@@H]23)cc1,23.1 µM
14,COc1ccc([C@@H]2C(C#N)=C(N)O[C@]3(OC)CCN(C)C[C@@H]23)cc1OC,19.1 µM
15,CCN1CC[C@@]2(OC)OC(N)=C(C#N)[C@@H](c3ccc(OC)c(OC)c3)[C@@H]2C1,23.2 µM
16,CCCN1CC[C@@]2(OC)OC(N)=C(C#N)[C@@H](c3ccc(OC)c(OC)c3)[C@@H]2C1,24.7 µM
17,COc1ccc([C@@H]2C(C#N)=C(N)O[C@]3(OC)CCN(Cc4ccccc4)C[C@@H]23)cc1OC,21.9 µM
18,CO[C@@]12CCN(Cc3ccccc3)C[C@H]1[C@H](c1ccc(N3CCOCC3)cc1)C(C#N)=C(N)O2,25.4 µM
19,CO[C@@]12CCN(C)C[C@H]1[C@H](c1ccc(-c3cccs3)cc1)C(C#N)=C(N)O2,13.8 µM
20,CCN1CC[C@@]2(OC)OC(N)=C(C#N)[C@@H](c3ccc(-c4cccs4)cc3)[C@@H]2C1,19.8 µM
21,Cn1c(=O)c2nc[nH]c2n(C)c1=O [THEOPHYLLINE],19.9 µM
